In patent US8952024B2, “Herbicidal pyrimidone derivatives” (E I du Pont de Nemours and Company, priority 2009, dated 2015):

What was measured:
Experiment in all cases: Test D pre-/postemergence plant response
Format in all cases: in vivo
[1] = test system: Italian ryegrass (Lolium multiflorum)
Outline: (§1)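 Seeds were sown in a loam–sand blend and sprayed preemergence with compound in a non-phytotoxic solvent mixture containing surfactant; plants at 2–18 cm (1- to 4-leaf stage) received the same formulation postemergence. After 14 to 21 days in a greenhouse, injury was rated visually against untreated controls (0 = no effect, 100 = complete control).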

[2] = test system: Russian thistle (Salsola kali)
Outline: as §1

[3] = test system: Surinam grass (Brachiaria decumbens)
Outline: as §1

[4] = test system: bermudagrass (Cynodon dactylon)
Outline: as §1

[5] = test system: black mustard (Brassica nigra)
Outline: as §1

[6] = test system: dayflower (Virginia (VA) dayflower, Commelina virginica)
Outline: as §1

[7] = test system: field bindweed (Convolvulus arvensis)
Outline: as §1

[8] = test system: groundsel (common groundsel, Senecio vulgaris); conditions: Postemergence
Outline: as §1

[9] = test system: guineagrass (Panicum maximum)
Outline: as §1

[10] = test system: mallow (common mallow, Malva sylvestris)
Outline: as §1

[11] = test system: naked crabgrass (Digitaria nuda)
Outline: as §1

[12] = test system: quackgrass (Elytrigia repens)
Outline: as §1

[13] = test system: sandbur (southern sandbur, Cenchrus echinatus)
Outline: as §1

[14] = test system: signalgrass (broadleaf signalgrass, Brachiaria platyphylla)
Outline: as §1

[15] = test system: spanishneedles (Bidens bipinnata)
Outline: as §1

[16] = Postemergence, 16 g ai/ha, scale 0 to 100
[17] = Postemergence, 31 g ai/ha, scale 0 to 100
[18] = Postemergence, 125 g ai/ha, scale 0 to 100 (0 no effect, 100 complete control)
[19] = Postemergence, 62 g ai/ha, scale 0 to 100 (0 no effect, 100 complete control)
[20] = Preemergence, 16 g ai/ha, scale 0 to 100, 0 no effect, 100 complete control
[21] = Preemergence, 31 g ai/ha, scale 0 to 100 (0 no effect, 100 complete control)
[22] = Preemergence, 125 g ai/ha, scale 0 to 100
[23] = Preemergence, 62 g ai/ha, scale 0 to 100

With `O=C1CCCC(O)=C1C(=O)c1cnc(-c2cccnc2)n(-c2ccccc2)c1=O` [Compound 113, 5-[(2-hydroxy-6-oxo-1-cyclohexen-1-yl)carbonyl]-3-phenyl-2-(3-pyridinyl)-4(3H)-pyrimidone] the “Plant response rating, Ryegrass, Italian” value [1, 16] was 0, the “Plant response rating, Ryegrass, Italian” value [1, 17] was 20 and the “Plant response rating, Ryegrass, Italian” value [1, 18] was 50. For the same compound, the “Plant response rating, Ryegrass, Italian” value [1, 19] was 35, the “Plant response rating, Ryegrass, Italian” value [1, 20] was 0 and the “Plant response rating, Ryegrass, Italian” value [1, 21] was 0. The “Plant response rating, Ryegrass, Italian” value [1, 22] was 20, the “Plant response rating, Ryegrass, Italian” value ([1]; Preemergence, rate not given, scale 0 to 100, 0 no effect, 100 complete control) was 0 and the “Plant response rating, Russian Thistle” value [2, 16] was 0. For the same compound, the “Plant response rating, Russian Thistle” value [2, 17] was 0, the “Plant response rating, Russian Thistle” value [2, 18] was 20 and the “Plant response rating, Russian Thistle” value [2, 19] was 20. The “Plant response rating, Russian Thistle” value [2, 20] was 0, the “Plant response rating, Russian Thistle” value [2, 21] was 65 and the “Plant response rating, Russian Thistle” value [2, 22] was 100. The “Plant response rating, Surinam Grass” value [3, 16] was 60, the “Plant response rating, Surinam Grass” value [3, 17] was 75 and the “Plant response rating, Surinam Grass” value [3, 19] was 80. For the same compound, the “Plant response rating, Surinam Grass” value [3, 21] was 40, the “Plant response rating, Surinam Grass” value [3, 22] was 95 and the “Plant response rating, Bermudagrass” value [4, 16] was 65. For the same compound, the “Plant response rating, Bermudagrass” value ([4]; Postemergence, 31 g ai/ha, scale 0 to 100 (0 no effect, 100 complete control)) was 70, the “Plant response rating, Bermudagrass” value [4, 18] was 80 and the “Plant response rating, Bermudagrass” value [4, 19] was 80. For the same compound, the “Plant response rating, Bermudagrass” value [4, 20] was 50, the “Plant response rating, Bermudagrass” value [4, 21] was 50 and the “Plant response rating, Bermudagrass” value [4, 23] was 70. For the same compound, the “Plant response rating, Bermudagrass” value [4, 22] was 85, the “Plant response rating, Black Mustard” value [5, 16] was 100 and the “Plant response rating, Black Mustard” value [5, 18] was 100. The “Plant response rating, Black Mustard” value [5, 19] was 100, the “Plant response rating, Black Mustard” value [5, 20] was 0 and the “Plant response rating, Black Mustard” value [5, 21] was 0. The “Plant response rating, Black Mustard” value [5, 23] was 80, the “Plant response rating, Black Mustard” value [5, 22] was 100 and the “Plant response rating, Dayflower, VA” value [6, 16] was 20. The “Plant response rating, Dayflower, VA” value [6, 17] was 40, the “Plant response rating, Dayflower, VA” value [6, 18] was 60 and the “Plant response rating, Dayflower, VA” value [6, 19] was 60. For the same compound, the “Plant response rating, Dayflower, VA” value [6, 20] was 50, the “Plant response rating, Dayflower, VA” value [6, 21] was 50 and the “Plant response rating, Dayflower, VA” value [6, 23] was 50. For the same compound, the “Plant response rating, Dayflower, VA” value [6, 22] was 65, the “Plant response rating, Field Bindweed” value [7, 16] was 50 and the “Plant response rating, Field Bindweed” value [7, 17] was 65. For the same compound, the “Plant response rating, Field Bindweed” value [7, 19] was 65, the “Plant response rating, Field Bindweed” value [7, 20] was 0 and the “Plant response rating, Field Bindweed” value [7, 21] was 20. For the same compound, the “Plant response rating, Field Bindweed” value [7, 23] was 65, the “Plant response rating, Field Bindweed” value [7, 22] was 90 and the “Plant response rating, Groundsel” value ([8]; 16 g ai/ha, scale 0 to 100) was 90. The “Plant response rating, Groundsel” value ([8]; 31 g ai/ha, scale 0 to 100) was 90, the “Plant response rating, Groundsel” value ([8]; 125 g ai/ha, scale 0 to 100 (0 no effect, 100 complete control)) was 100 and the “Plant response rating, Groundsel” value ([8]; 62 g ai/ha, scale 0 to 100 (0 no effect, 100 complete control)) was 100. The “Plant response rating, Guineagrass” value [9, 16] was 25, the “Plant response rating, Guineagrass” value [9, 17] was 25 and the “Plant response rating, Guineagrass” value [9, 18] was 70. The “Plant response rating, Guineagrass” value [9, 19] was 50, the “Plant response rating, Guineagrass” value [9, 20] was 0 and the “Plant response rating, Guineagrass” value [9, 21] was 65. For the same compound, the “Plant response rating, Guineagrass” value [9, 23] was 100, the “Plant response rating, Guineagrass” value [9, 22] was 100 and the “Plant response rating, Mallow” value [10, 16] was 0. For the same compound, the “Plant response rating, Mallow” value [10, 17] was 0, the “Plant response rating, Mallow” value [10, 18] was 20 and the “Plant response rating, Mallow” value [10, 19] was 0. For the same compound, the “Plant response rating, Mallow” value [10, 20] was 0, the “Plant response rating, Mallow” value [10, 21] was 5 and the “Plant response rating, Mallow” value [10, 23] was 5. For the same compound, the “Plant response rating, Mallow” value [10, 22] was 90, the “Plant response rating, Crabgrass, Naked” value [11, 16] was 50 and the “Plant response rating, Crabgrass, Naked” value [11, 17] was 65. The “Plant response rating, Crabgrass, Naked” value [11, 18] was 75, the “Plant response rating, Crabgrass, Naked” value [11, 19] was 70 and the “Plant response rating, Crabgrass, Naked” value [11, 20] was 0. The “Plant response rating, Crabgrass, Naked” value [11, 21] was 0, the “Plant response rating, Crabgrass, Naked” value [11, 23] was 90 and the “Plant response rating, Crabgrass, Naked” value [11, 22] was 100. The “Plant response rating, Quackgrass” value [12, 16] was 0, the “Plant response rating, Quackgrass” value [12, 17] was 0 and the “Plant response rating, Quackgrass” value [12, 18] was 30. For the same compound, the “Plant response rating, Quackgrass” value [12, 19] was 20, the “Plant response rating, Quackgrass” value [12, 20] was 0 and the “Plant response rating, Quackgrass” value [12, 21] was 0. For the same compound, the “Plant response rating, Quackgrass” value [12, 22] was 0, the “Plant response rating, Sandbur” value [13, 16] was 5 and the “Plant response rating, Sandbur” value [13, 17] was 10. For the same compound, the “Plant response rating, Sandbur” value [13, 18] was 60, the “Plant response rating, Sandbur” value [13, 19] was 60 and the “Plant response rating, Sandbur” value [13, 20] was 0. The “Plant response rating, Sandbur” value [13, 21] was 0, the “Plant response rating, Sandbur” value [13, 22] was 90 and the “Plant response rating, Signalgrass” value [14, 16] was 5. The “Plant response rating, Signalgrass” value [14, 17] was 40, the “Plant response rating, Signalgrass” value [14, 18] was 75 and the “Plant response rating, Signalgrass” value [14, 19] was 60. The “Plant response rating, Signalgrass” value [14, 20] was 0, the “Plant response rating, Signalgrass” value [14, 21] was 0 and the “Plant response rating, Signalgrass” value [14, 22] was 90. The “Plant response rating, Spanishneedles” value [15, 16] was 35, the “Plant response rating, Spanishneedles” value [15, 17] was 35 and the “Plant response rating, Spanishneedles” value [15, 18] was 60. The “Plant response rating, Spanishneedles” value [15, 19] was 50, the “Plant response rating, Spanishneedles” value [15, 20] was 0 and the “Plant response rating, Spanishneedles” value [15, 21] was 0. The “Plant response rating, Spanishneedles” value [15, 22] was 95.
